In patent US4694069A, “Kibdelosporangium aridum SK&F-AAD-609” (SmithKline Beckman Corporation, priority 1985, dated 1987):

Tests used:
[1] = tested on: mixed intestinal microflora (cecum fluid); assay: Swine in vitro model; conditions: one level, up to 166.67 ppm; 4-5 h
Description: A swine in vitro model was used to characterize AAD-609 antibiotics as potential feed additives in swine and poultry. Mixed intestinal microflora were obtained from ileally-cannulated pigs. Virginiamycin, carbadox, AAD-216 and its components, and AAD-609 Complex (containing less than 5% AAD-216 antibiotics) were tested at one level. […] Glucose (GLU) was spared from microbial degradation. Volatile fatty acids (TOTAL) were the major end-product of microbial metabolism while lactic acid production were reduced. […] Since AAD-609 and AAD-216 give similar in vitro results, it is expected that AAD-609 has similar growth-promoting activity in monogastric animals. Also, the in vitro activity of AAD-609 is similar to the activity previously observed with bacitracin in this model.
The swine in vitro model was carried out by incubating 1.5 ml of cecum fluid, from a swine fed normal rations, mixed with 1.5 ml of a nutrient broth (3 mg casein hydrolysate, 30 mg maltose, 1.25 mg urea, 0.5 mg lysine, and 30 mg cellobiose) and with up to 166.67 parts per million of a selected growth promotant at 39° C., with oscillation, for about 4-5 hours. Results, percentage of control, are reported in the following table in which all abbreviations are as above except that LLA means L-lactate and ETOH means ethanol.

[2] = tested on: rumen fermentation (strained rumen fluid); assay: Rumen in vitro model; set-up: species or system steer; conditions: for AAN (alpha amino nitrogen) / AMO (ammonia nitrogen) / LYS (lysine): 6 h; for % PR (percent propionate) / ACE (acetate) / BUT (butyrate) / ETOH (ethanol) / IBU (isobutyrate) / IVA (isovalerate) / PRO (propionate) / TOTAL (total volatile fatty acids) / VAL: 24 h
Description: The AAD-609 antibiotics were characterized in a rumen in vitro model to assess their potential as feed additives for ruminants. […] Specifically, strained rumen fluid (10 ml) obtained from a fistulated steer receiving a roughage ration, was mixed with 10 ml of nutrient broth (20 mg casein hydrolysate, 100 mg maltose, 15 mg urea, 400 mg solka floc (cellulose), 100 mg cellobiose and 100 mg starch) and with a selected growth promotant and incubated at 39° C., with oscillation, for 24 hours. […] Measurement of AMO, LYS and AAN was done with a sample taken from the incubation flask after 6 hours.

COC(=O)N/N=C/c1c[n+]([O-])c2ccccc2[n+]1[O-] [Carbadox, carbadox]
% PR (percent propionate) [1]: 38 % of control
ACE (acetate) [1]: 47 % of control
BUT (butyrate) [1]: 46 % of control
ETOH (ethanol) [1]: 62 % of control
GLU (glucose) [1]: 138 % of control
IBU (isobutyrate) [1]: 0 % of control
IVA (isovalerate) [1]: 0 % of control
LLA (L-lactate) [1]: 9 % of control
LYS (lysine) [1]: 79 % of control
PRO (propionate) [1]: 11 % of control
TOTAL (total volatile fatty acids) [1]: 30 % of control
VAL [1]: 0 % of control

avoparcin
AAN (alpha amino nitrogen) ([2]; 0.50 ppm): 99 % of control
AMO (ammonia nitrogen) ([2]; 0.50 ppm): 93 % of control
LYS (lysine) ([2]; 0.50 ppm): 120 % of control
% PR (percent propionate) ([2]; 0.50 ppm): 102 % of control
ACE (acetate) ([2]; 0.50 ppm): 100 % of control
BUT (butyrate) ([2]; 0.50 ppm): 103 % of control
ETOH (ethanol) ([2]; 0.50 ppm): 0 % of control
IBU (isobutyrate) ([2]; 0.50 ppm): 91 % of control
IVA (isovalerate) ([2]; 0.50 ppm): 97 % of control
PRO (propionate) ([2]; 0.50 ppm): 104 % of control
TOTAL (total volatile fatty acids) ([2]; 0.50 ppm): 102 % of control
VAL ([2]; 0.50 ppm): 103 % of control
AAN (alpha amino nitrogen) ([2]; 5.00 ppm): 120 % of control
AMO (ammonia nitrogen) ([2]; 5.00 ppm): 97 % of control
LYS (lysine) ([2]; 5.00 ppm): 150 % of control
% PR (percent propionate) ([2]; 5.00 ppm): 123 % of control
ACE (acetate) ([2]; 5.00 ppm): 94 % of control
BUT (butyrate) ([2]; 5.00 ppm): 82 % of control
ETOH (ethanol) ([2]; 5.00 ppm): 0 % of control
IBU (isobutyrate) ([2]; 5.00 ppm): 103 % of control
IVA (isovalerate) ([2]; 5.00 ppm): 94 % of control
PRO (propionate) ([2]; 5.00 ppm): 116 % of control
TOTAL (total volatile fatty acids) ([2]; 5.00 ppm): 94 % of control
VAL ([2]; 5.00 ppm): 73 % of control
AAN (alpha amino nitrogen) ([2]; 50.00 ppm): 182 % of control
AMO (ammonia nitrogen) ([2]; 50.00 ppm): 111 % of control
LYS (lysine) ([2]; 50.00 ppm): 114 % of control
% PR (percent propionate) ([2]; 50.00 ppm): 129 % of control
ACE (acetate) ([2]; 50.00 ppm): 98 % of control
BUT (butyrate) ([2]; 50.00 ppm): 90 % of control
ETOH (ethanol) ([2]; 50.00 ppm): 0 % of control
IBU (isobutyrate) ([2]; 50.00 ppm): 117 % of control
IVA (isovalerate) ([2]; 50.00 ppm): 90 % of control
PRO (propionate) ([2]; 50.00 ppm): 130 % of control
TOTAL (total volatile fatty acids) ([2]; 50.00 ppm): 101 % of control
VAL ([2]; 50.00 ppm): 68 % of control

CC[C@@]1([C@@H]2O[C@@H]([C@H]3O[C@@](O)(CO)[C@H](C)C[C@@H]3C)C[C@@H]2C)CC[C@H]([C@]2(C)CC[C@]3(C[C@H](O)[C@@H](C)[C@@H]([C@@H](C)[C@@H](OC)[C@H](C)C(=O)O)O3)O2)O1 [Monensin, monensin]
AAN (alpha amino nitrogen) ([2]; 0.50 ppm): 117 % of control
AMO (ammonia nitrogen) ([2]; 0.50 ppm): 103 % of control
LYS (lysine) ([2]; 0.50 ppm): 78 % of control
% PR (percent propionate) ([2]; 0.50 ppm): 131 % of control
ACE (acetate) ([2]; 0.50 ppm): 100 % of control
BUT (butyrate) ([2]; 0.50 ppm): 92 % of control
ETOH (ethanol) ([2]; 0.50 ppm): 0 % of control
IBU (isobutyrate) ([2]; 0.50 ppm): 112 % of control
IVA (isovalerate) ([2]; 0.50 ppm): 150 % of control
PRO (propionate) ([2]; 0.50 ppm): 141 % of control
TOTAL (total volatile fatty acids) ([2]; 0.50 ppm): 108 % of control
VAL ([2]; 0.50 ppm): 100 % of control
AAN (alpha amino nitrogen) ([2]; 5.00 ppm): 185 % of control
AMO (ammonia nitrogen) ([2]; 5.00 ppm): 101 % of control
LYS (lysine) ([2]; 5.00 ppm): 144 % of control
% PR (percent propionate) ([2]; 5.00 ppm): 189 % of control
ACE (acetate) ([2]; 5.00 ppm): 101 % of control
BUT (butyrate) ([2]; 5.00 ppm): 61 % of control
ETOH (ethanol) ([2]; 5.00 ppm): 0 % of control
IBU (isobutyrate) ([2]; 5.00 ppm): 84 % of control
IVA (isovalerate) ([2]; 5.00 ppm): 103 % of control
PRO (propionate) ([2]; 5.00 ppm): 208 % of control
TOTAL (total volatile fatty acids) ([2]; 5.00 ppm): 110 % of control
AAN (alpha amino nitrogen) ([2]; 50.00 ppm): 248 % of control
AMO (ammonia nitrogen) ([2]; 50.00 ppm): 101 % of control
LYS (lysine) ([2]; 50.00 ppm): 186 % of control
ACE (acetate) ([2]; 50.00 ppm): 96 % of control
BUT (butyrate) ([2]; 50.00 ppm): 53 % of control
ETOH (ethanol) ([2]; 50.00 ppm): 0 % of control
IBU (isobutyrate) ([2]; 50.00 ppm): 123 % of control
IVA (isovalerate) ([2]; 50.00 ppm): 132 % of control
PRO (propionate) ([2]; 50.00 ppm): 258 % of control
TOTAL (total volatile fatty acids) ([2]; 50.00 ppm): 117 % of control
VAL ([2]; 50.00 ppm): 81 % of control
